Source: patent publication US20250319067A1, “Improved Pharmacokinetics of Tryptamine Prodrugs” (Reunion Neuroscience, Inc., priority 2023, published 2025)
Entries after “also recorded” stand apart in the source; their conditions may differ. Where a name gives a salt, the structure may show the parent alone.

Tests used:
rats [1] = experiment: Behavioral safety pharmacology study in rats; type: in vivo; conditions: rat
Experimental: In a behavioral study in rats, single SC administration of 10, 25 or 50 mg/kg RE104 HCl induced significant acute, and reversible neuro-pharmacological effects; however, all observations were attributed to exaggerated pharmacologic effects at the serotonin receptor of the test article (i.e., SS). The incidence and duration of observations were dose related.

male rats = experiment: Respiratory function study in male rats; type: in vivo, rat; conditions: single SC 10, 25, and 50 mg/kg
Experimental: In a respiratory function study in male rats, at single SC doses of 10, 25, and 50 mg/kg, RE104 HCl produced increases in respiration rate (8-28%) and decreases in tidal volume (28-30%) and minute volume (24-31%). All these changes were transient and returned to pre-dose values by the 6-hour post-dose reading. Based upon the small magnitude and the transient nature of these changes, the changes were not considered adverse.

[2] = test system: conscious telemetered beagle dogs; experiment: Cardiovascular study in conscious telemetered beagle dogs; type: in vivo; conditions: dog
[3] = biological target: human ether-a-go-go-related gene (hERG) (Homo sapiens, UniProt Q12809); experiment: hERG tail current assay; type: cell-based; conditions: 30 μM as zwitterion (highest concentration tested)
[4] = GLP 14-day extended single SC dose toxicity study in rats; conditions: female, Sprague Dawley, rat, in vivo, subcutaneous
Experimental: (§1) In a GLP 14-day extended single SC dose toxicity study in rats, doses of 0 (PBS), 10, 25 and 75 mg/kg were evaluated. Animals were necropsied on Study Day 2 and Day 14 (also referred to as Recovery Day 13) post-dosing.
(§2) A non-GLP dose range study was performed in the dog in order to determine an MTD. Single SC doses of 7.5, 15 and 20 mg/kg were evaluated.

rats [5] = experiment: as above
Experimental: as §1, §2

healthy females [6] = experiment: Phase 1 FIH single ascending dose study: safety and tolerability (AEs); type: in vivo, human
Experimental: (§3) The study was a double-blind, randomized, placebo-controlled Phase 1 single ascending dose study in up to 6 cohorts in healthy females. Eligibility was assessed during a screening period of up to 28 days prior to enrollment. For the treatment period, subjects were admitted to the clinical research unit (CRU) one day prior to the dosing (Day −1). On Day 1, all subjects will received the assigned SC dose of RE104 HCl or placebo in a fed state (after domiciling overnight and consuming a planned evening meal on Day −1 and morning meal on Day 1 while at the CRU). Subjects were allowed to select snacks from a planned menu from 4 hours following dosing. Subjects were discharged from the clinic on Day 2 (−24 hours post-dose) after all required study procedures were completed and if deemed medically fit. Subjects returned to the clinic on Day 10 (±2 days) for a follow up visit.
Six (6) cohorts were enrolled in the study. Six (6) single doses were tested in 6 cohorts (Cohort 1 to Cohort 6) of 8 healthy female subjects (6 active and 2 placebo), as indicated in FIG. 1 and Table 3.
The starting dose was 5.5 mg RE104 HCl. Sentinels were used in all cohorts. Within each cohort, 2 subjects were treated first: 1 subject received RE104 HCl and 1 subject received placebo.
The study was monitored by a safety review committee (SRC). […] Safety, tolerability, and available PK data were assessed by the SRC between each cohort before ascending to the next dose level (Table 3). After each cohort dosing was complete, the SRC met to discuss dose escalation. Escalation to the next higher dose level occurred only after evaluation of the safety and tolerability data up to and including at least 24 hours post-dose of all evaluable subjects in the previous dose cohort. Available PK results were requested for determination of dose escalation, as deemed necessary.
Dosing took place at a time point agreed to with the investigational pharmacy and acceptable to the investigator. RE104 HCl or placebo were administered as a SC injection in the upper arm. Subjects received RE104 HCl or placebo in a fed state. The time of administration of RE104 HCl or placebo was be recorded in the eCRF. The regimen used is outlined in Table 3.
Within each cohort, 2 sentinel subjects were treated first: 1 subject received RE104 HCl and 1 subject received placebo. […] All drug administration was be done under direct medical supervision. Study subjects were overseen during the potentially psychoactive study drug period by professionals trained to monitor psychedelic experiences.

healthy females [7] = experiment: Phase 1 FIH study: modified Drug Effect Questionnaire (DEQ-High); type: in vivo, human
Experimental: as §3
The Drug Effect Questionnaire (DEQ) Feel/High is widely used in studies of acute subjective response to a variety of substances, to assess two key aspects of subjective experience: (1) the strength of substance effects and (2) desirability of substance effects (Morean et al., 2013). The modified DEQ assesses the extent to which subjects (1) feel any substance effect(s) and (2) feel high. This version of the DEQ includes the following items: “Do you feel a drug effect right now?” (FEEL); “Are you high right now?” (HIGH). FIG. 2 sets out the modified DEQ that was used.
The modified DEQ was used as an 11-point numeric rating scale (0-10) administered by a qualified staff member. The subjects were asked to verbally respond to indicate how strongly they feel the drug effect and how high they feel on the scale of 0-10 after being administered the study drug (Kollltveit et al., 2020).

healthy females [8] = experiment: Phase 1 FIH study: Mystical Experience Questionnaire (MEQ30); type: in vivo, human; conditions: 33 mg
Experimental: as §3
The Mystical Experience Questionnaire (MEQ30) is a validated questionnaire that assesses individual episodes of a mystical experience produced by classic hallucinogens (Barrett et al. 2015). The validated MEQ30 uses thirty questions across 4 areas of experience: (i) Mystical (including items concerning internal unity, external unity, noetic quality, and sacredness); (ii) Positive mood; (iii) Transcendence of time and space; and (iv) Ineffability. The subjects will be asked to rate each item of the MEQ30 on a 6-point scale. FIG. 3 sets out the revised MEQ30 that was used.

[9] = Prodrug cleavage in human plasma; type: in vitro ADME; conditions: human plasma (data not shown)
Experimental: Mean values from 3 replicate assays are reported. See the Supplemental Methods for additional details.
Triplicate aliquots (50 μL) of each spiked plasma solution were immediately added to 200 μL of ice-cold methanol/acetonitrile solution (50:50 v/v) containing the internal standards to generate time zero samples. Spiked plasma solutions were incubated at 37° C. in an orbital shaker set to 75 rpm, and 50-μL samples were taken in triplicate after 30 minutes and 1, 2, and 4 hours of incubation. Each sample was immediately added to 200 μL ofice-cold methanol/acetonitrile solution containing the internal standard(s) to terminate the reaction. Samples were mixed by vortex and then stored at −80° C. until analysis.
Calibration standards were prepared in plasma for each species and analyzed in batches by LC-MS/MS. Sample batches consisted of 3 replicates of a system suitability standard (containing the analyte and internal standard), the appropriate calibration standards in ascending order including a blank sample without internal standard, a zero sample (with internal standard), and at least 6 nonzero standards and the assay samples, followed by the 3 replicates of the system suitability sample.

male Wistar rats = experiment: Forced swim test (FST) in rats; type: in vivo, rat
[10] = Metabolite profiling in monkey plasma after SC RE104; type: in vivo, cynomolgus monkey; conditions: pooled plasma 0 to 12 hours post dose, SC 0.5 mg/kg RE104
Description: Blood samples were centrifuged to obtain plasma.

[11] = rat, oral Gymnopilus spectabilis (Chen et al.); cited from earlier work
[12] = in vivo; cited from earlier work
humans = conditions: humans; cited from earlier work

human ether-a-go-go-related gene (hERG), sequence (Q12809 whole entry): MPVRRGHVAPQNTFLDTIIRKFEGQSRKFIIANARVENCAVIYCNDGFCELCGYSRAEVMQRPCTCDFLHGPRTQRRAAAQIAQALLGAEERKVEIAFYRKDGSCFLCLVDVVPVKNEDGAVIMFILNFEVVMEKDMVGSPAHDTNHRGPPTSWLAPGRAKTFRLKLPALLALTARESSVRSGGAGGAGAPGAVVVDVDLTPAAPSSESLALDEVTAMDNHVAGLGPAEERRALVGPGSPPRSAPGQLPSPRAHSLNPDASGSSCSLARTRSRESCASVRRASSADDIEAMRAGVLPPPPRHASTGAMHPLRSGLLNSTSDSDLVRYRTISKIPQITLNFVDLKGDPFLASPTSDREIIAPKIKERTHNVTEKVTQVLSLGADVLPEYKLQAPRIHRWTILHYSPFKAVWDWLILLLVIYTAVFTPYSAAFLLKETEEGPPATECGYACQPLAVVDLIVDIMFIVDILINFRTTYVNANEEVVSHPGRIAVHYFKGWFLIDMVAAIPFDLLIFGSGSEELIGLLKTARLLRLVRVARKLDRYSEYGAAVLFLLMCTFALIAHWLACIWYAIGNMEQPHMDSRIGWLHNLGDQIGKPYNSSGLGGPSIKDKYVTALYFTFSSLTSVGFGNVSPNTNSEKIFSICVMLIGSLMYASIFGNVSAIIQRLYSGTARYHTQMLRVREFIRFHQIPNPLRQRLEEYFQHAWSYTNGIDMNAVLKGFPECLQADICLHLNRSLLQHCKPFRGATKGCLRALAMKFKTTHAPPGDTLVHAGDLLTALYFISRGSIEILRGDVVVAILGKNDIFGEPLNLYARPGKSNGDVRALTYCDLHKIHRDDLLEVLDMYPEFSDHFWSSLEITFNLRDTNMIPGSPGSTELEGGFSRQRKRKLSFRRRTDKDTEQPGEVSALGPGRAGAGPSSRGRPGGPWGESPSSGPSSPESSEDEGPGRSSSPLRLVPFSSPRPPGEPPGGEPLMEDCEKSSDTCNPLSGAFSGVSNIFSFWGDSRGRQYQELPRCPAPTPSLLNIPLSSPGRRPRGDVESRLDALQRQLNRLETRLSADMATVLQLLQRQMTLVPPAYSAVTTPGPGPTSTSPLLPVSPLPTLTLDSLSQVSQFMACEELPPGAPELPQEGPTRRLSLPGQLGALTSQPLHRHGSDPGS

CC(C)N(CCc1c[nH]c2cccc(OC(=O)CCCC(=O)O)c12)C(C)C [RE104 HCl, 4-Glutaroyl-3-(2-diisopropylaminoethyl)-1H-indole hydrochloride]
time of neuro-pharmacological effects (rats [1]; single SC 10 mg/kg): effects were observed at 30 minutes (min) to 1 hour (h) | time of neuro-pharmacological effects (rats [1]; single SC 25 mg/kg): effects were observed to 6 h | time of neuro-pharmacological effects (rats [1]; single SC 50 mg/kg): effects were noted through 6 h post-dose but were resolved by 24 h | decreases in minute volume (male rats): 24-31% | decreases in tidal volume (male rats): 28-30% | increases in respiration rate (male rats): 8-28% | effects on cardiac rhythm, ECG parameters or body temperature ([2]; SC 1, 3 or 8 mg/kg): No significant biologically relevant effects | effect on heart rate and blood pressure ([2]; SC 3 and 8 mg/kg): Transient increases in heart rate and blood pressure | effect on heart rate and blood pressure ([2]; single SC 1 mg/kg): small transient increase in heart rate but had no effect on blood pressure | decrease in hERG current amplitude [3]: 5.9 ± 1.6% | NOAEL at 14 days [4]: 10 mg/kg | Fold Lower than Scaled NOAEL Dose (rats [5]; Cohort 1, 5.5 mg RE104 HCl): 19 | Fold Lower than Scaled NOAEL Dose (rats [5]; Cohort 2, 11 mg RE104 HCl): 9.7 | Fold Lower than Scaled NOAEL Dose (rats [5]; Cohort 3, 22 mg RE104 HCl): 4.9 | Fold Lower than Scaled NOAEL Dose (rats [5]; Cohort 4, 33 mg RE104 HCl): 3.2 | MRSD (rats [5]; from rat NOAEL, 10-fold safety margin): 9.7 mg | injection site adverse reactions (healthy females [6]; SC injection in the upper arm): No injection site adverse reactions were reported | serious AEs (healthy females [6]; doses up to and including 44 mg): no serious AEs | blood pressure, vital sign, clinical laboratory, electrocardiogram findings (healthy females [6]; doses up to and including 44 mg, hydrochloride): no evident blood pressure effects; also recorded: no clinically significant vital sign, clinical laboratory, or electrocardiogram findings | reduction of psychoactive experience relative to historical evidence with psilocybin (healthy females [7]; 33 mg): 50% | time of peak activity (healthy females [7]; 33 mg SC): approx 1 h | MEQ total score and domain scores (healthy females [8]): ≥ 60%

CN(C)CCc1c[nH]c2cccc(OC(=O)CCCC(=O)O)c12.Cl [RE109, psilocin-4-glutarate, reference compound]
cleavage to psilocin [9]: rapid cleavage to psilocin | climbing as share of escape behaviors (male Wistar rats; rat FST, day 28): 26% | swimming as share of escape behaviors (male Wistar rats; rat FST, day 28): 74% | mean swimming time relative to vehicle (male Wistar rats; rat FST, single 1 mg/kg dose): significantly increased | mean immobility time vs vehicle (male Wistar rats; rat FST, single 1 mg/kg dose, day 14 and 28): significant decrease | duration of distinctive serotonergic behaviors (male Wistar rats; rat, dosing day, 1 mg/kg): approximately 3 hours

CC(C)N(CCc1c[nH]c2cccc(OC3OC(C(=O)O)C(O)C(O)C3O)c12)C(C)C (stereo not drawn) [glucuronidation of 4-OH-DiPT]
share of the total peak area [10]: 24.5%

CN(C)CCc1c[nH]c2cccc(O)c12 [psilocin]
distribution half-life [11]: 1.95 h | elimination half-life [11]: 2.47 h | oral bioavailability in man [12]: approximately 53%

CN(C)CCc1c[nH]c2cccc(OP(=O)(O)O)c12 [psilocybin]
duration of psychedelic state / effects (humans): 6 to 8 h
